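Compound exposure: 48 hours, 5 concentrations, 96-well plates. GI50 is the concentration that inhibits growth by half.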 Calls of active or inactive are those of the source. Rule as the data show it: active = GI50 up to about 1.1 µM and inactive = higher.

Among the test systems are EKVX; A549; NCI-H23; NCI-H460; COLO 205; SK-OV-3; HOP-92; HCC 2998; MCF7; NCI-H226; HT-29; HCT-116; HOP-62; SNB-75; MOLT-4; RPMI-8226; 786-0; OVCAR-8; SK-MEL-28; CCRF-CEM.
Holding throughout (test): NCI-60 cell line screen, 48 h

Turning to `C=CCCCCCCCCC(=O)ON(Cc1ccc(O)c(OC)c1)C(=O)C(F)(F)F`, the GI50 in the assay on EKVX, in the assay with A549, in the assay on NCI-H23, in the assay with NCI-H460, in the assay on COLO 205 and with SK-OV-3 was > 100 µM (inactive) in each case. Moreover, the GI50 is 34.2 µM (inactive) in the assay on HOP-92; > 100 µM (inactive) in the assay on HCC 2998; > 100 µM (inactive) in the assay on MCF7; 21.4 µM (inactive) in the assay with NCI-H226; > 100 µM (inactive) in the assay with HT-29; > 100 µM (inactive) in the assay on HCT-116. Moreover, the GI50 is > 100 µM (inactive) with HOP-62; > 100 µM (inactive) in the assay with SNB-75; 31.3 µM (inactive) in the assay on MOLT-4; > 100 µM (inactive) in the assay on RPMI-8226; > 100 µM (inactive) in the assay with 786-0; > 100 µM (inactive) in the assay on OVCAR-8. Further, the GI50 in the assay with SK-MEL-28 is > 100 µM (inactive); in the assay with CCRF-CEM, 10 µM (inactive).
With `CC/C(Cl)=N\OC(=O)Nc1ccc(F)c([N+](=O)[O-])c1`, the GI50 with EKVX was 19.2 µM (inactive); in the assay with A549 it was 20.5 µM (inactive); in the assay with NCI-H23, 13.8 µM (inactive); with NCI-H460 it was 3.73 µM (inactive); in the assay on COLO 205 it was 2.78 µM (inactive); with SK-OV-3, 19.1 µM (inactive). Further, the GI50 is 5.14 µM (inactive) in the assay with HOP-92; 29.4 µM (inactive) in the assay on HCC 2998; 8.81 µM (inactive) with MCF7; 33.3 µM (inactive) in the assay with NCI-H226; 24.9 µM (inactive) in the assay on HT-29; 7 µM (inactive) in the assay with HCT-116. For the same molecule, the GI50 with HOP-62 was 19.6 µM (inactive); in the assay with SNB-75 it was 18.2 µM (inactive); with MOLT-4, 2.72 µM (inactive); with RPMI-8226, 2.94 µM (inactive); in the assay with 786-0, 6.64 µM (inactive); with OVCAR-8, 16.6 µM (inactive). Besides, the GI50 in the assay on SK-MEL-28 was 16.6 µM (inactive); in the assay on CCRF-CEM, 2.59 µM (inactive).
As to `COC(=O)c1c(OC(C)=O)ccc2c1c1c(OC(C)=O)c3ccccc3c(OC(C)=O)c1n2Cc1ccccc1`, the GI50 was 2.56 µM (inactive) in the assay with EKVX; 2.75 µM (inactive) in the assay with A549; 6.03 µM (inactive) in the assay with NCI-H23; 2.24 µM (inactive) in the assay on NCI-H460; 7.91 µM (inactive) in the assay on COLO 205; 3.67 µM (inactive) in the assay on SK-OV-3. Further, the GI50 was 0.658 µM (active) in the assay with HOP-92; 1.85 µM (inactive) in the assay on HCC 2998; 13.5 µM (inactive) with MCF7; 10.9 µM (inactive) with NCI-H226; 12.2 µM (inactive) with HT-29; 3.96 µM (inactive) in the assay on HCT-116. Also, the GI50 with HOP-62 was 8.61 µM (inactive); in the assay with SNB-75 it was 1.76 µM (inactive); in the assay with MOLT-4 it was 7.46 µM (inactive); with RPMI-8226, 1.52 µM (inactive); in the assay with 786-0, 12.1 µM (inactive); in the assay on OVCAR-8, 9.44 µM (inactive). In addition, the values for the GI50 with SK-MEL-28 and with CCRF-CEM were 9.77 µM (inactive) and 6.68 µM (inactive), respectively.
Take `CC(=O)/C=C/C=C(\C)CC/C=C(\C)CC(C)C`: the GI50 in the assay with EKVX was 37.3 µM (inactive); in the assay on A549, 34 µM (inactive); in the assay on NCI-H23, 23.6 µM (inactive); in the assay with NCI-H460, 29.9 µM (inactive); in the assay with COLO 205, 20.2 µM (inactive); with SK-OV-3 it was 55.7 µM (inactive). For the same molecule, the GI50 is 0.558 µM (active) in the assay with HOP-92; 18.4 µM (inactive) in the assay with HCC 2998; 22.8 µM (inactive) in the assay on MCF7; 26.9 µM (inactive) with NCI-H226; 30.1 µM (inactive) in the assay on HT-29; 21.8 µM (inactive) with HCT-116. The GI50 was 41.3 µM (inactive) with HOP-62; 35.2 µM (inactive) in the assay on SNB-75; 18.1 µM (inactive) with MOLT-4; 17.1 µM (inactive) in the assay on RPMI-8226; 34 µM (inactive) in the assay with 786-0; 23.7 µM (inactive) with OVCAR-8. The figures for the GI50 in the assay on SK-MEL-28 and in the assay with CCRF-CEM were 33.9 µM (inactive) and 13.5 µM (inactive), respectively.

These data come from ChEMBL document CHEMBL1201862, “PubChem BioAssay data set” (2004).
